Each structure is given as a SMILES string. pIC50: −log10 of the molar value. ≈ marks a conversion by molar mass, not a printed value.

The target of experiment [1] is T1, EcSecA (Escherichia coli, UniProt P10408). Kind of experiment: biochemical. Details: species or system E. coli. As to conditions: IC50, Intrinsic ATPase, Table 1, full-length EcSecA.
Target sequence in this assay (P10408 whole entry): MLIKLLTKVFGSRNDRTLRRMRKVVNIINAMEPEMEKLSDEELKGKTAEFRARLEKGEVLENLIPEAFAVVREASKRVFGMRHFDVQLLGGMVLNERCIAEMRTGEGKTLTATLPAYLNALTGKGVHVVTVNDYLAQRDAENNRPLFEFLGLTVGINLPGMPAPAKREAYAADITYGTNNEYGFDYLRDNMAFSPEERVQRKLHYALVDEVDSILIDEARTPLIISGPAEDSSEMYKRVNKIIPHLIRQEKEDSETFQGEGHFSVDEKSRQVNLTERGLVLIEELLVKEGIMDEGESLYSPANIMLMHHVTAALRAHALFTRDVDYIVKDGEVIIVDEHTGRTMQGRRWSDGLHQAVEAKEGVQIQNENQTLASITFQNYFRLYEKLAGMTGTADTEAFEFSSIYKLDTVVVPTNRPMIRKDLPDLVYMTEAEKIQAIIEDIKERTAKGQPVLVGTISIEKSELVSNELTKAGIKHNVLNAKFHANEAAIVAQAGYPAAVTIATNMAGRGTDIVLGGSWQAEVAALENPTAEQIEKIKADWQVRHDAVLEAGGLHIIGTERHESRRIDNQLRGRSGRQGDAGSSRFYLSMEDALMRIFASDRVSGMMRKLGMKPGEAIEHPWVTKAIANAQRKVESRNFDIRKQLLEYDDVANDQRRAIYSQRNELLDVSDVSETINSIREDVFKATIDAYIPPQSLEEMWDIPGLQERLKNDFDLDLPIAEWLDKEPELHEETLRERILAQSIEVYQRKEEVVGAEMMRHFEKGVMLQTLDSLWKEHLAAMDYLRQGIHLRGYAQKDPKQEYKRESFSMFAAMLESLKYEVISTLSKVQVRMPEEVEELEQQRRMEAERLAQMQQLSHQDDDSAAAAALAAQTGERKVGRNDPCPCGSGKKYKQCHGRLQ
Experiment [2] concerns S. aureus 8325-4. The experiment is described as follows: Bacteriostatic effect, S. aureus 8325-4 (WT). The note with it: Staphylococcus aureus, 83254, read-out: Bacteriostatic effect, MIC, WT 8325-4.
Experiment [3] has as its system S. aureus 6538. Kind of experiment: Bacteriostatic effect, S. aureus 6538. The note with it: Staphylococcus aureus, 6538, read-out: Bacteriostatic effect, MIC, S. aureus 6538.
Experiment [4] deals with T1, EcSecA. Kind of experiment: biochemical. The note with it: IC50, Translocation ATPase, Table 1.
Target sequence in this assay (P0AG99 whole entry): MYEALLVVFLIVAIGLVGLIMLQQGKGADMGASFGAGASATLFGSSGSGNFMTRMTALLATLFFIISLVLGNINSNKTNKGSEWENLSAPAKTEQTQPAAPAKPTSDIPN
Target sequence in this assay (P10408 whole entry): as the sequence (P10408 whole entry) above
Target sequence in this assay (P0AGA2 whole entry, further chain): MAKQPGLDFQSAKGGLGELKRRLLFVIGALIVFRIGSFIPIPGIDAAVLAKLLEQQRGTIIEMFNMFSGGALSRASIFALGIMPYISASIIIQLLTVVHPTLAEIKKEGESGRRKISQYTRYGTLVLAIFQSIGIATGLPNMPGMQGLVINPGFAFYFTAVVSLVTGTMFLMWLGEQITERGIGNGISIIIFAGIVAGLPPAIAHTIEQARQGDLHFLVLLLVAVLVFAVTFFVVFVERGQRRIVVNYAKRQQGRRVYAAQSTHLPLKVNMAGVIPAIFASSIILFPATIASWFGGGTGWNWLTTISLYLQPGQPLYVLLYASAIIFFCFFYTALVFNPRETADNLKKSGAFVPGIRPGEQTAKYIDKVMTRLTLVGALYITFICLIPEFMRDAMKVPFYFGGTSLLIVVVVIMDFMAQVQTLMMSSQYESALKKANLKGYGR
Target sequence in this assay (P0AG96 whole entry, further chain): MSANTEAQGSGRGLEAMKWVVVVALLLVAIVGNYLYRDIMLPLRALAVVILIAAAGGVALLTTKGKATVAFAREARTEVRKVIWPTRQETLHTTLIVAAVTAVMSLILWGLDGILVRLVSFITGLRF
For experiment [5], the system named is S. aureus Mu3. Kind of experiment: Bacteriostatic effect, S. aureus Mu3. The note with it: Staphylococcus aureus, MU3, read-out: Bacteriostatic effect, MIC, S. aureus Mu3.
Experiment [6] deals with T1, EcSecA. The experiment is described as follows: biochemical. As to conditions: IC50, Protein Translocation, Table 1.
Target sequence in this assay (P0AG99 whole entry): as the sequence (P0AG99 whole entry) above
Target sequence in this assay (P10408 whole entry): as the sequence (P10408 whole entry) above
Target sequence in this assay (P0AGA2 whole entry, further chain): as the sequence (P0AGA2 whole entry, further chain) above
Target sequence in this assay (P0AG96 whole entry, further chain): as the sequence (P0AG96 whole entry, further chain) above
Experiment [7] deals with S. aureus N315. The experiment is described as follows: Bacteriostatic effect, S. aureus N315. The note with it: Staphylococcus aureus, N315, read-out: Bacteriostatic effect, MIC, S. aureus N315.
Experiment [8] concerns the target SpSecA (Streptococcus pyogenes, UniProt Q99Y96). In kind it is cell-based. The note with it: read-out: IC50, Ion Channel activity, SpSecA.
Experiment [9] has as its target BaSecA1 (Bacillus anthracis, UniProt Q81X26). Kind of experiment: cell-based. The note with it: IC50, Ion Channel activity, BGaSecA 1.
In experiment [10] the target is EcSecA N68 (Escherichia coli, UniProt P10408). The experiment is described as follows: biochemical. Type of experiment: biochemical, E. coli.
Sequence of EcSecA N68 (P10408 1-610): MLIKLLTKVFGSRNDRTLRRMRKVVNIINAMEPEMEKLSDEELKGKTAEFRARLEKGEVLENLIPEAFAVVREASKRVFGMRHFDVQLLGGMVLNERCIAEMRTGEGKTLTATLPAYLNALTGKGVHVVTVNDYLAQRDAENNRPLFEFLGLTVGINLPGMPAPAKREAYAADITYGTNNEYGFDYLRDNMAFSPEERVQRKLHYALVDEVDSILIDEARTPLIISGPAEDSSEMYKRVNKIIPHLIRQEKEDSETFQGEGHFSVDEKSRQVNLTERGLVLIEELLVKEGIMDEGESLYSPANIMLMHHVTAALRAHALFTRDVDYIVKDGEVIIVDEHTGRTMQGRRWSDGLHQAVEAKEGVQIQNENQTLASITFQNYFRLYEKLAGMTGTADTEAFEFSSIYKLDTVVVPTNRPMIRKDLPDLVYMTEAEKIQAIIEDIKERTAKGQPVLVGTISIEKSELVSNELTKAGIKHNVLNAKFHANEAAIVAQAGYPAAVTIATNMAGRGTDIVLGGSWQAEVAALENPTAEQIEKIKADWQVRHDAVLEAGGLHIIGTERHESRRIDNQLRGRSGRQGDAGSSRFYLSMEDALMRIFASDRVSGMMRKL
In experiment [11] the target is MtbSecA (Mycobacterium tuberculosis, UniProt P9WGP5). The experiment is described as follows: cell-based.
Sequence of MtbSecA (P9WGP5 whole entry): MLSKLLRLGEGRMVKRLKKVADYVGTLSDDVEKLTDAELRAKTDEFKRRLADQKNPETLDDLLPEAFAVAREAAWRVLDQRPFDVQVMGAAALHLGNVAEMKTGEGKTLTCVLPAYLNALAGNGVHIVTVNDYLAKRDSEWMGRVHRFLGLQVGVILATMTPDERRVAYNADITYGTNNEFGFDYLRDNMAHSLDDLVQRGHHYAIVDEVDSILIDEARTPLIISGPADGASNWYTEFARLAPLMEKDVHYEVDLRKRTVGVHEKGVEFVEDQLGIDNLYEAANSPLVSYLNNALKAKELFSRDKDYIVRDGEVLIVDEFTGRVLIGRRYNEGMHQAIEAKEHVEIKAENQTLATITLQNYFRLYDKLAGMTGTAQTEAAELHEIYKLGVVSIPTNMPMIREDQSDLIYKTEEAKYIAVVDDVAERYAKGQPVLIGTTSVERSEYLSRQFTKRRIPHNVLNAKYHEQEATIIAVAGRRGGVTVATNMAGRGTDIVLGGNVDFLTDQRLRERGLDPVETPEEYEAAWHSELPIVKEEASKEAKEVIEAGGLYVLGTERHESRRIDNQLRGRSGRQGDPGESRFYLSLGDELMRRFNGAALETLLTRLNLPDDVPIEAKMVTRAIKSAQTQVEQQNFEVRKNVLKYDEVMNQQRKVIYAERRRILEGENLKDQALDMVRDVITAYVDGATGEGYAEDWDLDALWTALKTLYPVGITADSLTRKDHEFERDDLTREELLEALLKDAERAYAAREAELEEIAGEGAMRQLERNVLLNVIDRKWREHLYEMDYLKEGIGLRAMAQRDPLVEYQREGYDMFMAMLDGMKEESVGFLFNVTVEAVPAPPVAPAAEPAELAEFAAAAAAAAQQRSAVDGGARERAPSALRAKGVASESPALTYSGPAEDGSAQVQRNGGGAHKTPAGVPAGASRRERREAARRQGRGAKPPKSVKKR

Sequence of BaSecA1 (Q81X26 whole entry, looked up): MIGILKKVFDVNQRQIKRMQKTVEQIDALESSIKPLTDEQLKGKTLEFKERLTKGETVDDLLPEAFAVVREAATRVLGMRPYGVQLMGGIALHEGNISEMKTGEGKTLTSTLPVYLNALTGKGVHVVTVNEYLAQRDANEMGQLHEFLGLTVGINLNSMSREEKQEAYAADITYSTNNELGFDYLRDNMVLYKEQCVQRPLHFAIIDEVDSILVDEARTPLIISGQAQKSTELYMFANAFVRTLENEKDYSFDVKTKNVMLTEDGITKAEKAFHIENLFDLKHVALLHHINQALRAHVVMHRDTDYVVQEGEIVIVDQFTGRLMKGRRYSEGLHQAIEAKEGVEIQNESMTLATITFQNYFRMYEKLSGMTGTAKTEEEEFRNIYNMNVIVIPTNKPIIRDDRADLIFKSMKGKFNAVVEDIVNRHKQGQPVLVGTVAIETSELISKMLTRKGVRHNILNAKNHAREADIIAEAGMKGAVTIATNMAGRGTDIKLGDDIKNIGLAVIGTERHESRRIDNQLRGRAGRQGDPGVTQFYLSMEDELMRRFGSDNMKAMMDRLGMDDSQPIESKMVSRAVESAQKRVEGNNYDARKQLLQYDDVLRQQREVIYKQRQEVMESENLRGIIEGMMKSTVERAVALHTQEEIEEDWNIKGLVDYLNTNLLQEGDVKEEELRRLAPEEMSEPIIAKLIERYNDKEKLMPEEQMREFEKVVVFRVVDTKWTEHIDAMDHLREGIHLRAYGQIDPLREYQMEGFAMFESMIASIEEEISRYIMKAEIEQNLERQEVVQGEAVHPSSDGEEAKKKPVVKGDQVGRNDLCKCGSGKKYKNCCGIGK
Sequence of SpSecA (Q99Y96 whole entry): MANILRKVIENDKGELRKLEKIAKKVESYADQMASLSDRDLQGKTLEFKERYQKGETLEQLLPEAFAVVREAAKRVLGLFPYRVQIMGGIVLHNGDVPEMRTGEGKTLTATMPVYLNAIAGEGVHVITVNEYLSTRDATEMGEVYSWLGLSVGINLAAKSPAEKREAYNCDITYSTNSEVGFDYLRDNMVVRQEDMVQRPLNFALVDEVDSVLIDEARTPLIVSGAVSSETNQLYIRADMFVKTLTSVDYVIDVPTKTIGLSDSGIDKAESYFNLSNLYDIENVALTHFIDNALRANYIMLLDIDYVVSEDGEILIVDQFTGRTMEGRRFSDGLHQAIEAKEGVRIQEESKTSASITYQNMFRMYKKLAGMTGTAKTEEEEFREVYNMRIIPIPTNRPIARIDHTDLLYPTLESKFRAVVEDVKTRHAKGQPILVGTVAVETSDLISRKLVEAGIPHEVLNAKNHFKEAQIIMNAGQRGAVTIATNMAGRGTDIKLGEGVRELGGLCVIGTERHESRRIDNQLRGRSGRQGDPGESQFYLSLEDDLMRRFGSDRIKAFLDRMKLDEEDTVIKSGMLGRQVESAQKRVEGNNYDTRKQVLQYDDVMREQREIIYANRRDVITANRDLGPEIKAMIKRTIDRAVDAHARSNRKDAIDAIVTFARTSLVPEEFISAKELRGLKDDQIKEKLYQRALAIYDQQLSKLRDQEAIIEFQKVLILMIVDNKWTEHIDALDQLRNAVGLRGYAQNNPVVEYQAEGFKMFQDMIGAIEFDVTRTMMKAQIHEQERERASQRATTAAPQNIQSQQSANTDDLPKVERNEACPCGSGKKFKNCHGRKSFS

Take `CCCCCCC1c2ccc(O)cc2Oc2cc(O)ccc21` [SCA-50]: the pIC50 – broadly, −log10 of the IC50, conventionally taken in molar units – in experiment [1] is 4.22; in experiment [4], 4.22; in [6] it was 4.42; in experiment [8], 5.72; in [9], 6.00; in experiment [10], 5.40. Moreover, in [11], the negative-log IC50 (pIC50) was 5.52. Further, the MIC in experiment [2], in [3], in [5] and in experiment [7] was 3.7 µg/mL (≈ 12.4 µM) throughout.

Source of the values: patent US9957247B2, “SecA inhibitors and methods of making and using thereof” (Georgia State University Research Foundation, Inc., priority 2012, dated 2018).
